{
  "source": "patent EP0843554B1",
  "about": "“ASCORBYL-PHOSPHORYL-CHOLESTEROL” (AVON PRODUCTS, INC., priority 1996, dated 1997)",
  "test_system": "cultured human skin fibroblasts",
  "assay": "[^3H]-Proline Incorporation Assay (collagen biosynthesis)",
  "type": "cell-based",
  "conditions": "fibroblasts incubated with 11.3, 22.5 and 45 µg/ml for 48 hours; radioactive counts of newly synthesized [^3H]-hydroxyproline; numbers only in a chart image",
  "protocol": "An art-recognized [^3H]-Proline Incorporation Assay was performed with different doses of 3'-(L-ascorbyl-2-phosphoryl)-cholesterol. Juva, Anal. Biochem., Vol. 15, pages 77-83 (1966); Booth, Biochim. Biophys. Acta, Vol. 675, pages 117-122 (1981).\nFibroblasts were incubated with 0 µg/ml, 11.3 µg/ml, 22.5 µg/ml and 45 µg/ml of 3'-(L-ascorbyl-2-phosphoryl)-cholesterol for a total of 48 hours. After the first 24 hours [^3H]-labeled proline was added to the culture. Following the second 24 hour period the cells were harvested and prepared for the collagen biosynthesis assay.\nProtease inhibitors were added to prevent degradation of collagen and other proteins. The cell layer was scraped into a solution containing 0.4 M NaCl and 0.01 M Tris (pH 7.5). Extracts were sonicated to disrupt cell membranes. Separate volumes of the cell-containing solution (1 ml each) were dialyzed overnight against several changes of deionised water. The retentate was removed from dialysis and hydrolyzed in 6 N hydrochloric acid at 120°C overnight. The assay was performed using an oxidation process with 2 M chloramine-T. Samples were analyzed for radioactive counts, which represent the amount of newly synthesized [^3H]-hydroxyproline -- an index for new collagen synthesis.",
  "data": [
    {"smiles": "CC(C)CCC[C@@H](C)[C@H]1CC[C@H]2[C@@H]3CC=C4C[C@@H](OP(=O)(O)OC5=C(O)[C@@H]([C@@H](O)CO)OC5=O)CC[C@]4(C)[C@H]3CC[C@]12C", "note": "[3'-(L-ascorbyl-2-phosphoryl)-cholesterol]", "values": [
      {"measurement": "production of new collagen", "value": "increased production of new collagen by human skin fibroblasts in a dose-dependent manner"}
    ]}
  ]
}
